According to ChEMBL document CHEMBL3991601, “The target landscape of clinical kinase drugs” (Science, 2017):
Calls of active or inactive are those of the source. Rule as the data show it, for most assays here: actives have a measured Kd and inactives only a lower limit.

Legend:
[1] = target: Calcium/calmodulin-dependent protein kinase type II subunit gamma (Homo sapiens, UniProt Q13555)
[2] = target: Cyclin-dependent kinase 5 (Homo sapiens, UniProt Q00535)
[3] = target: Eukaryotic translation initiation factor 2-alpha kinase 1 (Homo sapiens, UniProt Q9BQI3)
Ephrin type-B receptor 4 = target: T1, Ephrin type-B receptor 4 (Homo sapiens, UniProt P54760)
T1 sequence (P54760 whole entry): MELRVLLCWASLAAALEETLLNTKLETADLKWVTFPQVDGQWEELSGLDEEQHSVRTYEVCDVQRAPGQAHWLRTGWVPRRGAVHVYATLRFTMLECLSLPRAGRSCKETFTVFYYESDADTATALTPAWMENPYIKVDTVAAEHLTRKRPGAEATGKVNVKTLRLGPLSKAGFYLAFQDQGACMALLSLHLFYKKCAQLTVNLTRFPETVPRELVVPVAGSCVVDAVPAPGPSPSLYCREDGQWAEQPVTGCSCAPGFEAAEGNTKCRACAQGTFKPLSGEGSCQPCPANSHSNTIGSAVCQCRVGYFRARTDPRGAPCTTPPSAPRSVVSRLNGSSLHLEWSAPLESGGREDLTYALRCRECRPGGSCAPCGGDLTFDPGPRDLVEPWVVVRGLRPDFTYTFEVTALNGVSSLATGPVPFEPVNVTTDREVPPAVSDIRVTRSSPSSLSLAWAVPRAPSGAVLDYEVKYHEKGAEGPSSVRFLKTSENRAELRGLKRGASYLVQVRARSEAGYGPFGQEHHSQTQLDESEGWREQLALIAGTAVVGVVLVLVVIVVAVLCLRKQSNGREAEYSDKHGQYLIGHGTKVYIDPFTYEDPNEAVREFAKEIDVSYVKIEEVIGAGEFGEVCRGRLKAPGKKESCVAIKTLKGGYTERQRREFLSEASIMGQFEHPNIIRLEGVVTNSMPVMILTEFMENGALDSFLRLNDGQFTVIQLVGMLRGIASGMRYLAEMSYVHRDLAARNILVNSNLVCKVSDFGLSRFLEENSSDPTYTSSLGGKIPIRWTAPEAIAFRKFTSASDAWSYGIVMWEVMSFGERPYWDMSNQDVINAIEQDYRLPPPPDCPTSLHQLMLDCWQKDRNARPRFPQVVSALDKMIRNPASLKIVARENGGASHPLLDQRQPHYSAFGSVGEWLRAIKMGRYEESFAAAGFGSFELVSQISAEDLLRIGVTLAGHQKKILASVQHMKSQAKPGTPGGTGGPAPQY

[4] = target: Platelet-derived growth factor receptor beta (Homo sapiens, UniProt P09619)
Septin-9 = target: T2, Septin-9 (Homo sapiens, UniProt Q9UHD8)
T2 sequence (Q9UHD8 whole entry): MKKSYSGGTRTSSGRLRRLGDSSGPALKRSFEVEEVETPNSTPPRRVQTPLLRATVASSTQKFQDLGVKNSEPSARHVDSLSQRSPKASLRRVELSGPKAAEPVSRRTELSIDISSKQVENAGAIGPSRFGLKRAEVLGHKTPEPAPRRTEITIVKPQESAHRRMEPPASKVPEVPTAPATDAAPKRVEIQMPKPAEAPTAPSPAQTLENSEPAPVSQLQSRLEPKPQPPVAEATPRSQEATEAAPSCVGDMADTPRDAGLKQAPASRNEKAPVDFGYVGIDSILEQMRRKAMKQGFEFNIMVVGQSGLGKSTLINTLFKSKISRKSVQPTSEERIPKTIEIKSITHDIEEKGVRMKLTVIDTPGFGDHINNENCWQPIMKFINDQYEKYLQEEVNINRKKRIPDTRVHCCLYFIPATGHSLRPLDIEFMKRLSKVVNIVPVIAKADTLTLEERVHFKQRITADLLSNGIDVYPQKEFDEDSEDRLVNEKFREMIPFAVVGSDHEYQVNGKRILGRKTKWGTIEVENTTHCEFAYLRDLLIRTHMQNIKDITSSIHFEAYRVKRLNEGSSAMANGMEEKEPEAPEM

Obg-like ATPase 1 = Obg-like ATPase 1 (Homo sapiens, UniProt Q9NTK5)
Also: in the data inactive means no Kd found up to 30 µM.

Eukaryotic translation initiation factor 2-alpha kinase 1, sequence (Q9BQI3 whole entry): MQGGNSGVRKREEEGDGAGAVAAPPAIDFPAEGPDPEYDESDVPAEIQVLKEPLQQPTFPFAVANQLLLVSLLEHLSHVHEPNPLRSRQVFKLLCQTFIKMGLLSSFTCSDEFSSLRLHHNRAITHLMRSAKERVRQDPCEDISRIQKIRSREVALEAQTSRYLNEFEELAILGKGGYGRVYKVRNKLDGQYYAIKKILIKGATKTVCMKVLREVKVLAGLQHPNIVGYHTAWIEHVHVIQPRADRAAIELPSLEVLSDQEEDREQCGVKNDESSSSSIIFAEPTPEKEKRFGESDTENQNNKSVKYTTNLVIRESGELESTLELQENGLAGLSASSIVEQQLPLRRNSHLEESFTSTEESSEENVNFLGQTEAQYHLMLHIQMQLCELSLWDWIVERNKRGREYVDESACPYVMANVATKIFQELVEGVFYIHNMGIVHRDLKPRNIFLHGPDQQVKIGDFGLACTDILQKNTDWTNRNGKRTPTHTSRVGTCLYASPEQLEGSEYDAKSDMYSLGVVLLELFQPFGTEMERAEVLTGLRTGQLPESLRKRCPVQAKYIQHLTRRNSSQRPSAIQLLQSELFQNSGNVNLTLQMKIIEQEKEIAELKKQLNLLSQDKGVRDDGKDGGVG
Platelet-derived growth factor receptor beta, sequence (P09619 whole entry): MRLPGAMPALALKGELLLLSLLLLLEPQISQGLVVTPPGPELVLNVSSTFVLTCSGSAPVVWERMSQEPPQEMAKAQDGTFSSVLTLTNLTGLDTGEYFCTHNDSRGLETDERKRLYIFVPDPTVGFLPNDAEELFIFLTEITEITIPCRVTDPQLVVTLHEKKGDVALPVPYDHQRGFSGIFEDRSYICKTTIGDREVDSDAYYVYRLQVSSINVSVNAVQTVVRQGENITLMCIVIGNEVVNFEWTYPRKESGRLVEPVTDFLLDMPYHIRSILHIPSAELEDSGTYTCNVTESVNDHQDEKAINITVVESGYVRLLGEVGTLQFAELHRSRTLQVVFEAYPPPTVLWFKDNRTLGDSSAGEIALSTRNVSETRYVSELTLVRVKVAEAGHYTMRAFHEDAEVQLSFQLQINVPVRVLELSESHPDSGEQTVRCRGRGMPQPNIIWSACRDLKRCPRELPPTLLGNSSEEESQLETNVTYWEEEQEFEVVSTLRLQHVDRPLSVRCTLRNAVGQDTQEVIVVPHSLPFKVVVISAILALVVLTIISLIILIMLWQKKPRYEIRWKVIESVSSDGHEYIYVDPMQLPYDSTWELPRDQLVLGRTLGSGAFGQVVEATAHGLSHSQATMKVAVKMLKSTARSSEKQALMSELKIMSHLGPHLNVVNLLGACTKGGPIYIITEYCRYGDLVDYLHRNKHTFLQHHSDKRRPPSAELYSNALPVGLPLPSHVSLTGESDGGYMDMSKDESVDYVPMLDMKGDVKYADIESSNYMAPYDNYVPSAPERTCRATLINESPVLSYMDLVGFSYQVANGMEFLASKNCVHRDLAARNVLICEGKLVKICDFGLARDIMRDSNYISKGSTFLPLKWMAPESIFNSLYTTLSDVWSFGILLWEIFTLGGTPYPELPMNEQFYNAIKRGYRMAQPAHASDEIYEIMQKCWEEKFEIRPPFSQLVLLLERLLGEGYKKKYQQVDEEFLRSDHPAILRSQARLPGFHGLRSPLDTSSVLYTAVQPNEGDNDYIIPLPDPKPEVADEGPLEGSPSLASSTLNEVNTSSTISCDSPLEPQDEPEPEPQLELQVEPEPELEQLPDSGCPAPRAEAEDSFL
Obg-like ATPase 1, sequence (Q9NTK5 whole entry, looked up): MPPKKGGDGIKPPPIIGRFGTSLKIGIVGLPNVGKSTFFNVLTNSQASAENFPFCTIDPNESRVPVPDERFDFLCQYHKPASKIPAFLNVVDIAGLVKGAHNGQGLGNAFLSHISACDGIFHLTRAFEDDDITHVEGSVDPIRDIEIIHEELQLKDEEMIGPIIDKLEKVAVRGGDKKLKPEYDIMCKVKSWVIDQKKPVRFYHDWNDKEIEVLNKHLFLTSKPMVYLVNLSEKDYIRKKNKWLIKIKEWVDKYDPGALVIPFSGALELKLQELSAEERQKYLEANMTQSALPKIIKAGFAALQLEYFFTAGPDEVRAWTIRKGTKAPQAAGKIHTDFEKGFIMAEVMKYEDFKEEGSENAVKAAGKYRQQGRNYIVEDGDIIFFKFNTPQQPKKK
Cyclin-dependent kinase 5, sequence (Q00535 whole entry): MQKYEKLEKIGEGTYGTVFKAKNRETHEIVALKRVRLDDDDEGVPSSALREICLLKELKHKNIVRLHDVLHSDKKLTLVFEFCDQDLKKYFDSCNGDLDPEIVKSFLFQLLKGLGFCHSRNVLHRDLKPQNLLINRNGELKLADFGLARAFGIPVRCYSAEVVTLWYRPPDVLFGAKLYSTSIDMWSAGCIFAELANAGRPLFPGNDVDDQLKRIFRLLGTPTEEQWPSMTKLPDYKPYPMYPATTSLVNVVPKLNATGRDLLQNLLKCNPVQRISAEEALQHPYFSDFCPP
Calcium/calmodulin-dependent protein kinase type II subunit gamma, sequence (Q13555 whole entry): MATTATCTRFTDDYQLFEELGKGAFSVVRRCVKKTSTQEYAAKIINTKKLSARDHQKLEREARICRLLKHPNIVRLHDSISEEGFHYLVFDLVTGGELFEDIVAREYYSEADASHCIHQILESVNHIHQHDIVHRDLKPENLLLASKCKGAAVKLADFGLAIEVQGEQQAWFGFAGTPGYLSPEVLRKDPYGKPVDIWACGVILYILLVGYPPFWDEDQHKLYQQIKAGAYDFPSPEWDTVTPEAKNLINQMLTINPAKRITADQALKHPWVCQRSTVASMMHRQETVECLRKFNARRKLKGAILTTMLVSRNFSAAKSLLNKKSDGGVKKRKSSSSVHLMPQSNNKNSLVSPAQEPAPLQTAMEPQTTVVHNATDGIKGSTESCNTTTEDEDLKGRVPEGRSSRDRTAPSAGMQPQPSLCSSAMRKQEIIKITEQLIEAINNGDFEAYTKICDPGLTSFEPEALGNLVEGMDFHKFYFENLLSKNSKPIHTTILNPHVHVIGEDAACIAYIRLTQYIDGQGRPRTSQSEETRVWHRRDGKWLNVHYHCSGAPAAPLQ

| Kd [1] | Kd [2] | Kd [3] | Kd (Ephrin type-B receptor 4) | Kd [4] | Kd (Septin-9) | Kd (Obg-like ATPase 1) | Structure (SMILES) |
| --- | --- | --- | --- | --- | --- | --- | --- |
| > 30 µM (inactive) | > 30 µM (inactive) | > 30 µM (inactive) | > 30 µM (inactive) | > 30 µM (inactive) | > 30 µM (inactive) | – | O=c1[nH]c([C@@H]2CCCN2)nc2c1oc1ccc(Cl)cc12 |
| 0.018 µM (active) | – | 4.84 µM (active) | > 30 µM (inactive) | > 30 µM (inactive) | > 30 µM (inactive) | – | CCN1CCN(Cc2ccc(Nc3ncc(F)c(-c4cc(F)c5nc(C)n(C(C)C)c5c4)n3)nc2)CC1 [ABEMACICLIB] |
| – | – | – | – | – | > 30 µM (inactive) | > 30 µM (inactive) | CN(C)C/C=C/C(=O)Nc1cc2c(Nc3ccc(F)c(Cl)c3)ncnc2cc1O[C@H]1CCOC1 [AFATINIB] |
| > 30 µM (inactive) | – | > 30 µM (inactive) | > 30 µM (inactive) | – | > 30 µM (inactive) | > 30 µM (inactive) | CCN(CCCOc1ccc2c(Nc3cc(CC(=O)Nc4cccc(F)c4)n[nH]3)ncnc2c1)CCOP(=O)(O)O [BARASERTIB] |
| 0.738 µM (active) | > 30 µM (inactive) | > 30 µM (inactive) | > 30 µM (inactive) | > 30 µM (inactive) | > 30 µM (inactive) | – | COc1cccc(Nc2ncnn3ccc(CN4CC[C@@H](N)[C@H](O)C4)c23)c1 [BMS-690514] |
| – | – | – | – | – | > 30 µM (inactive) | > 30 µM (inactive) | C[C@@]1(C(=O)Nc2ccc(F)nc2)CCCN1c1nc(Nc2cc(C3CC3)n[nH]2)c2cccn2n1 [BMS-754807] |
| – | > 30 µM (inactive) | > 30 µM (inactive) | > 30 µM (inactive) | > 30 µM (inactive) | > 30 µM (inactive) | > 30 µM (inactive) | CCOc1ccn(-c2ccc(F)cc2)c(=O)c1C(=O)Nc1ccc(Oc2ccnc(N)c2Cl)c(F)c1 [BMS-777607] |
| – | – | – | – | – | > 30 µM (inactive) | > 30 µM (inactive) | COc1cc2c(Oc3ccc4[nH]c(C)cc4c3F)ncnc2cc1OCCCN1CCCC1 [CEDIRANIB] |
| > 30 µM (inactive) | – | > 30 µM (inactive) | > 30 µM (inactive) | – | > 30 µM (inactive) | > 30 µM (inactive) | Cn1c(=O)n(-c2ccc(C(C)(C)C#N)cc2)c2c3cc(-c4cnc5ccccc5c4)ccc3ncc21 [DACTOLISIB] |
| 14.3 µM | > 30 µM (inactive) | > 30 µM (inactive) | > 30 µM (inactive) | > 30 µM (inactive) | > 30 µM (inactive) | – | CC[C@@](C)(Nc1ccnc(-c2c[nH]c3ncccc23)n1)C(=O)NCC(F)(F)F [DECERNOTINIB] |
| – | – | – | – | – | > 30 µM (inactive) | > 30 µM (inactive) | CC1(C)CNc2cc(NC(=O)c3cccnc3NCc3ccncc3)ccc21 [MOTESANIB] |
| > 30 µM (inactive) | > 30 µM (inactive) | > 30 µM (inactive) | > 30 µM (inactive) | > 30 µM (inactive) | > 30 µM (inactive) | – | O=C(Nc1ccc(OC(F)(F)F)cc1)c1sccc1NCc1ccnc2ccccc12 [OSI-930] |
| > 30 µM (inactive) | > 30 µM (inactive) | > 30 µM (inactive) | > 30 µM (inactive) | > 30 µM (inactive) | > 30 µM (inactive) | – | FC(F)(F)c1ccc(CNc2ccc(Cc3c[nH]c4ncc(Cl)cc34)cn2)cn1 [PEXIDARTINIB] |
| – | – | – | – | – | > 30 µM (inactive) | > 30 µM (inactive) | Cn1cnc2c(F)c(Nc3ccc(Br)cc3Cl)c(C(=O)NOCCO)cc21 [SELUMETINIB] |
| > 30 µM (inactive) | 0.514 µM (active) | 1.66 µM (active) | > 30 µM (inactive) | > 30 µM (inactive) | > 30 µM (inactive) | – | O=C(O)c1ccc2c(c1)nc(Nc1cccc(Cl)c1)c1ccncc12 [SILMITASERTIB] |
| > 30 µM (inactive) | > 30 µM (inactive) | > 30 µM (inactive) | > 30 µM (inactive) | > 30 µM (inactive) | > 30 µM (inactive) | – | CC(C)(O)CC(=O)NCCn1ccc2ncnc(Nc3ccc(Oc4cccc(C(F)(F)F)c4)c(Cl)c3)c21 [TAK-285] |
| > 30 µM (inactive) | > 30 µM (inactive) | > 30 µM (inactive) | > 30 µM (inactive) | – | > 30 µM (inactive) | > 30 µM (inactive) | Cc1cc(C(=O)Nc2cc(Oc3ccc4nc(NC(=O)C5CC5)cn4n3)ccc2C)n(C)n1 [TAK-593] |
| – | – | – | – | – | 0.01 µM | > 30 µM (inactive) | COc1cc2c(N3CCN(C(=O)Nc4ccc(OC(C)C)cc4)CC3)ncnc2cc1OCCCN1CCCCC1 [TANDUTINIB] |
| > 30 µM (inactive) | > 30 µM (inactive) | > 30 µM (inactive) | > 30 µM (inactive) | > 30 µM (inactive) | > 30 µM (inactive) | – | O[C@H]1CC[C@H](Nc2ncc3nc(Nc4c(F)cc(F)cc4F)n([C@H]4CCOC4)c3n2)CC1 [TANZISERTIB] |

| Structure (SMILES) | Kd [1] | Kd [2] | Kd [3] | Kd (Ephrin type-B receptor 4) | Kd [4] | Kd (Septin-9) | Kd (Obg-like ATPase 1) |
| --- | --- | --- | --- | --- | --- | --- | --- |
| Cn1cc(-c2[nH]c3cc(NC(=O)[C@H](N)C4CCCCC4)cc4c3c2C=NNC4=O)cn1 | > 30 µM (inactive) | > 30 µM (inactive) | > 30 µM (inactive) | > 30 µM (inactive) | 0.1 µM (active) | > 30 µM (inactive) | > 30 µM (inactive) |
| C=CCn1c(=O)c2cnc(Nc3ccc(N4CCN(C)CC4)cc3)nc2n1-c1cccc(C(C)(C)O)n1 [ADAVOSERTIB] | > 30 µM (inactive) | – | > 30 µM (inactive) | > 30 µM (inactive) | > 30 µM (inactive) | > 30 µM (inactive) | > 30 µM (inactive) |
| CC1(COc2ccc3c(c2)ncn3-c2ccc3cccc(N4CCC(N)CC4)c3n2)COC1 [CRENOLANIB] | 0.766 µM (active) | – | > 30 µM (inactive) | > 30 µM (inactive) | – | > 30 µM (inactive) | 0.007 µM |
| O=S(=O)(c1cccc2cnccc12)N1CCCNCC1 [FASUDIL] | > 30 µM (inactive) | – | > 30 µM (inactive) | > 30 µM (inactive) | > 30 µM (inactive) | > 30 µM (inactive) | > 30 µM (inactive) |
| CCc1nc(C(N)=O)c(Nc2ccc(N3CCC(N4CCN(C)CC4)CC3)c(OC)c2)nc1NC1CCOCC1 [GILTERITINIB] | 0.169 µM (active) | > 30 µM (inactive) | – | > 30 µM (inactive) | 0.51 µM (active) | > 30 µM (inactive) | – |
| C[C@]1(O)C[C@@H](c2nc(-c3ccc4ccc(-c5ccccc5)nc4c3)c3c(N)nccn32)C1 [LINSITINIB] | – | – | > 30 µM (inactive) | > 30 µM (inactive) | > 30 µM (inactive) | > 30 µM (inactive) | – |
| N#CCNC(=O)c1ccc(-c2ccnc(Nc3ccc(N4CCOCC4)cc3)n2)cc1 [MOMELOTINIB] | – | > 30 µM (inactive) | – | > 30 µM (inactive) | > 30 µM (inactive) | > 30 µM (inactive) | > 30 µM (inactive) |
| CN(c1ncccc1CNc1nc(Nc2ccc3c(c2)CC(=O)N3)ncc1C(F)(F)F)S(C)(=O)=O [PF-00562271] | – | – | > 30 µM (inactive) | > 30 µM (inactive) | – | > 30 µM (inactive) | > 30 µM (inactive) |
| C=CCN(/C=C1/C(=O)O[C@H](COC)[C@@]2(C)C1=C(O)C(=O)C1=C2[C@H](OC(C)=O)C[C@]2(C)C(=O)CC[C@@H]12)CC=C [SONOLISIB] | > 30 µM (inactive) | > 30 µM (inactive) | > 30 µM (inactive) | > 30 µM (inactive) | > 30 µM (inactive) | > 30 µM (inactive) | – |
| CN1CCN(c2nc(C3=C(c4c[nH]c5ccccc45)C(=O)NC3=O)c3ccccc3n2)CC1 [SOTRASTAURIN] | > 30 µM (inactive) | > 30 µM (inactive) | > 30 µM (inactive) | > 30 µM (inactive) | – | > 30 µM (inactive) | – |
